Laboratory results as given in patent US20250074891A1 (Anaxis Pharma Pty Ltd., priority 2021, published 2025).

Legend:
Conditions in all cases: Table 35
RIP3 = RIP3 (Homo sapiens (Human), UniProt Q9Y572); experiment: KINOMEscan binding assay, RIP3
Experimental: (§1) Kinase assays. For most assays, kinase-tagged T7 phage strains were grown in parallel in 24-well blocks in an E. coli host derived from the BL21 strain. E. coli were grown to log-phase and infected with T7 phage from a frozen stock (multiplicity of infection=0.4) and incubated with shaking at 32° C. until lysis (90-150 minutes).
(§2) The Hill Slope was set to −1.

RIP1 = RIP1 (Homo sapiens (Human), UniProt Q13546); experiment: KINOMEscan binding assay, RIP1
MLKL (full length) = MLKL (full length) (Homo sapiens (Human), UniProt Q8NB16); experiment: KINOMEscan binding assay, MLKL (full length)
Experimental: as §1, §2

Sequence of RIP1 (Q13546 whole entry): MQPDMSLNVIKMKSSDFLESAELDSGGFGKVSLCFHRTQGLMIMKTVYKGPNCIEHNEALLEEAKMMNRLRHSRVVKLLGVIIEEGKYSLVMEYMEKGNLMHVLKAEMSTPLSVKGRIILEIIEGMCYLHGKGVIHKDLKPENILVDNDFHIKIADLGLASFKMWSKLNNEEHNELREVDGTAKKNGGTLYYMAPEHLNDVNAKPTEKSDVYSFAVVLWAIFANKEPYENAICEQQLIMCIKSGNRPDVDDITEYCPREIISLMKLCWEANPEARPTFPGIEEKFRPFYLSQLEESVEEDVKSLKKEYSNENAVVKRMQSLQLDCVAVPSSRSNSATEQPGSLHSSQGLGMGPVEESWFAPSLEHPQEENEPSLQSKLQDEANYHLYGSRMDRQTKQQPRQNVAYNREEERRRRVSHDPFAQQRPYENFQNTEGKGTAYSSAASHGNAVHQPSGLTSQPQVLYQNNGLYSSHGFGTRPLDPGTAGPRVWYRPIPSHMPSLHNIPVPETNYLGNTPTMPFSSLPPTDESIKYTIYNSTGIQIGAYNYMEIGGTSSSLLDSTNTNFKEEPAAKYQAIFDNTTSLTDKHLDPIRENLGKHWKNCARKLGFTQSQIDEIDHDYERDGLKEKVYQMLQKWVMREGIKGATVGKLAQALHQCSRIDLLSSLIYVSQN
Sequence of MLKL (full length) (Q8NB16 whole entry): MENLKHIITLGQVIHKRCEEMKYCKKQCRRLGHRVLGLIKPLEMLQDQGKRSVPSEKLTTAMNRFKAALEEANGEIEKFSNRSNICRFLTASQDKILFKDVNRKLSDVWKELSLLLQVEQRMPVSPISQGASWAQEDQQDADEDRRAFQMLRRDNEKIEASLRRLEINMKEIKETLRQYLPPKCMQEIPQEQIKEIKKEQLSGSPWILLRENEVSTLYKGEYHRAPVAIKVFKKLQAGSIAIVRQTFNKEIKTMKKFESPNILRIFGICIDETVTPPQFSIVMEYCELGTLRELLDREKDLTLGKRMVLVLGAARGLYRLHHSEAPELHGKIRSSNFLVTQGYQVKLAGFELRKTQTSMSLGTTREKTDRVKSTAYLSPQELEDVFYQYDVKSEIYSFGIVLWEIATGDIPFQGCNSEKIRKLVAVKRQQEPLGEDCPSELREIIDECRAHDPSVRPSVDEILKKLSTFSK
Sequence of RIP3 (Q9Y572 whole entry): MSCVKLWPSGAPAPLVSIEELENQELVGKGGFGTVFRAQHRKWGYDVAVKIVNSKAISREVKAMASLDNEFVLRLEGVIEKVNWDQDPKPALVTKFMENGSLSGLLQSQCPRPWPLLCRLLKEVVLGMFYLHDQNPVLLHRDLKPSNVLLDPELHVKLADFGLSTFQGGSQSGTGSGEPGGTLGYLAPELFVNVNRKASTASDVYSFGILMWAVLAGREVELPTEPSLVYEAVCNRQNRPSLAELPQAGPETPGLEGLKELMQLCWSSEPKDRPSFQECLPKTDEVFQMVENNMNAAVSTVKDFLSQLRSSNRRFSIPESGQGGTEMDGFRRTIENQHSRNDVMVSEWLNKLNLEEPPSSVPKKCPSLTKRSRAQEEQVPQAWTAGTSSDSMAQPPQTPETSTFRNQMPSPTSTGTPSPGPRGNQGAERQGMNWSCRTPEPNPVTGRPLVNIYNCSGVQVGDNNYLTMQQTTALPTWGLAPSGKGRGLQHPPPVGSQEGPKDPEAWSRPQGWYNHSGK

| Structure (SMILES) | Kd (RIP3) [µM] | Kd (RIP1) [µM] | Kd (MLKL (full length)) [µM] |
| --- | --- | --- | --- |
| CCS(=O)(=O)Nc1ccc(-c2n[nH]c(Nc3cnccn3)c2C(N)=O)cc1OCc1ccc(F)cc1 [Compound 62, 3-(4-(ethylsulfonamido)-3-((4-fluorobenzyl)oxy)phenyl) 5-(pyrazin-2-ylamino)-1H pyrazole-4-carboxamide] | > 30 | > 30 | < 0.01 |
| NC(=O)c1c(-c2ccc(NS(=O)(=O)C(F)F)cc2)n[nH]c1Nc1cnccn1 [Compound 63, 3-(4-((difluoromethyl)sulfonamido)phenyl)-5-(pyrazin-2-ylamino)-1H-pyrazole-4-carboxamide] | > 30 | > 30 | < 0.01 |
| CCS(=O)(=O)Nc1ccc(-c2n[nH]c(Nc3cnc4ccccc4n3)c2C(N)=O)cc1 [Compound 67, 3-(4-(ethylsulfonamido)phenyl)-5-(quinoxalin-2-ylamino)-1H-pyrazole-4-carboxamide] | > 30 | > 30 | < 0.01 |
| NC(=O)c1c(-c2ccc(NS(=O)(=O)C3CC3)cc2)n[nH]c1Nc1cnccn1 [Compound 68, 3-(4-(cyclopropanesulfonamido)phenyl)-5-(pyrazin-2-ylamino)-1H-pyrazole-4-carboxamide] | > 30 | > 30 | < 0.01 |
| NC(=O)c1c(-c2ccc(NS(=O)(=O)Cc3ccc(Cl)cc3)cc2)n[nH]c1Nc1cnccn1 [Compound 70, 3-(4-(((4-chlorophenyl)methyl)sulfonamido)phenyl)-5-(pyrazin-2-ylamino)-1H-pyrazole-4-carboxamide] | > 30 | > 30 | < 0.01 |
| CCS(=O)(=O)Nc1ccc(-c2n[nH]c(Nc3cnc(C(F)(F)F)cn3)c2C(N)=O)cc1 [Compound 75, 3-(4-ethanesulfonamidophenyl)-5-{[5-(trifluoromethyl)pyrazin-2-yl]amino}-1H-pyrazole-4-carboxamide] | > 30 | > 30 | < 0.01 |
| CCS(=O)(=O)Nc1ccc(-c2n[nH]c(Nc3cc4ccccc4cn3)c2C(N)=O)cc1 [Compound 87, 3-(4-(ethylsulfonamido)phenyl)-5-(isoquinolin-3-ylamino)-1H-pyrazole-4-carboxamide] | > 30 | > 30 | < 0.01 |
| CCS(=O)(=O)Nc1ccc(-c2n[nH]c(Nc3cnc(OC)cn3)c2C(N)=O)cc1 [Compound 90, 3-(4-(ethylsulfonamido)phenyl)-5-((5-methoxypyrazin-2-yl)amino)-1H-pyrazole-4-carboxamide] | > 30 | > 30 | < 0.01 |
| CCS(=O)(=O)Nc1ccc(-c2n[nH]c(Nc3ccc(C(F)(F)F)cn3)c2C(N)=O)cc1 [Compound 93, 3-(4-(ethylsulfonamido)phenyl)-5-((5-(trifluoromethyl)pyridin-2-yl)amino)-1H-pyrazole-4-carboxamide] | > 30 | > 30 | < 0.01 |
| CCS(=O)(=O)Nc1ccc(-c2n[nH]c(Nc3cncc(OC)n3)c2C(N)=O)cc1 [Compound 99, 3-(4-(ethylsulfonamido)phenyl)-5-((6-methoxypyrazin-2-yl)amino)-1H-pyrazole-4-carboxamide] | > 30 | > 30 | < 0.01 |
| CCS(=O)(=O)Nc1ccc(-c2n[nH]c(Nc3cnn(C)c3)c2C(N)=O)cc1 [Compound 100, 3-(4-(ethylsulfonamido)phenyl)-5-((1-methyl-1H-pyrazol-4-yl)amino)-1H-pyrazole-4-carboxamide] | > 30 | > 30 | < 0.01 |
| CCS(=O)(=O)Nc1ccc(-c2n[nH]c(Nc3cnc(C)cn3)c2C(N)=O)cc1 [Compound 101, 3-(4-(ethylsulfonamido)phenyl)-5-((5-methylpyrazin-2-yl)amino)-1H-pyrazole-4-carboxamide] | > 30 | > 30 | < 0.01 |
| CCS(=O)(=O)Nc1ccc(-c2n[nH]c(Nc3ccc(C#N)cc3)c2C(N)=O)cc1 [Compound 102, 5-((4-cyanophenyl)amino)-3-(4-(ethylsulfonamido)phenyl)-1H-pyrazole-4-carboxamide] | > 30 | > 30 | < 0.01 |
| CCS(=O)(=O)Nc1ccc(-c2n[nH]c(Nc3ccnc(C(F)(F)F)c3)c2C(N)=O)cc1 [Compound 104, 3-(4-(ethylsulfonamido)phenyl)-5-((2-(trifluoromethyl)pyridin-4-yl)amino)-1H-pyrazole-4-carboxamide] | > 30 | > 30 | < 0.01 |
| CCOc1cc(Nc2[nH]nc(-c3ccc(NS(=O)(=O)CC)cc3)c2C(N)=O)ccn1 [Compound 105, 5-((2-ethoxypyridin-4-yl)amino)-3-(4-(ethylsulfonamido)phenyl)-1H-pyrazole-4-carboxamide] | > 30 | > 30 | < 0.01 |
| CCS(=O)(=O)Nc1ccc(-c2n[nH]c(Nc3ccnc(OCC(F)F)c3)c2C(N)=O)cc1 [Compound 106, 5-((2-(2,2-difluoroethoxy)pyridin-4-yl)amino)-3-(4-(ethylsulfonamido)phenyl)-1H-pyrazole-4-carboxamide] | > 30 | > 30 | < 0.01 |
| CCS(=O)(=O)Nc1ccc(-c2n[nH]c(Nc3cnccn3)c2C(N)=O)cc1 [Compound 108, 3-(4-(ethylsulfonamido)phenyl)-5-(pyrazin-2-ylamino)-1H-pyrazole-4-carboxamide] | > 30 | > 30 | < 0.01 |
| COCCOc1cc(Nc2[nH]nc(-c3ccc(NS(=O)(=O)CC#N)cc3)c2C(N)=O)ccn1 [Compound 110, 3-(4-((cyanomethyl)sulfonamido)phenyl)-5-((2-(2-methoxyethoxy)pyridin-4-yl)amino)-1H-pyrazole-4-carboxamide] | > 30 | > 30 | < 0.01 |
| CCS(=O)(=O)Nc1ccc(-c2n[nH]c(Nc3cc(C)nc(C)c3)c2C(N)=O)cc1 [Compound 112, 5-((2,6-dimethylpyridin-4-yl)amino)-3-(4-(ethylsulfonamido)phenyl)-1H-pyrazole-4-carboxamide] | > 30 | > 30 | < 0.01 |
| CCS(=O)(=O)Nc1ccc(-c2n[nH]c(Nc3ccnc(C)c3)c2C(N)=O)cc1 [Compound 113, 3-(4-(ethylsulfonamido)phenyl)-5-((2-methylpyridin-4-yl)amino)-1H-pyrazole-4-carboxamide] | > 30 | > 30 | < 0.01 |
| CCS(=O)(=O)Nc1ccc(-c2n[nH]c(Nc3ccnc(OC)n3)c2C(N)=O)cc1 [Compound 123, 3-(4-(ethylsulfonamido)phenyl)-5-((2-methoxypyrimidin-4-yl)amino)-1H-pyrazole-4-carboxamide] | > 30 | > 30 | < 0.01 |
| CCS(=O)(=O)Nc1ccc(-c2n[nH]c(Nc3ccccc3)c2C(N)=O)cc1 [Compound 124, 3-(4-(ethylsulfonamido)phenyl)-5-(phenylamino)-1H-pyrazole-4-carboxamide] | > 30 | > 30 | < 0.01 |
| CCS(=O)(=O)Nc1ccc(-c2n[nH]c(Nc3cccc(C(F)(F)F)n3)c2C(N)=O)cc1 [Compound 126, 3-(4-(ethylsulfonamido)phenyl)-5-((6-(trifluoromethyl)pyridin-2-yl)amino)-1H-pyrazole-4-carboxamide] | > 30 | > 30 | < 0.01 |
